Our source for the IC50 values is ChEMBL document CHEMBL1250468, “Synthesis of aryl-heteroaryl ureas (AHUs) based on 4-aminoquinoline and their evaluation against the insulin-like growth factor receptor (IGF-1R)” (Bioorg Med Chem, 2010).

For this assay, the target named is Insulin-like growth factor 1 receptor (Homo sapiens, UniProt P08069). Put plainly: Inhibition of recombinant IGF1R by ELISA.
Chain of Insulin-like growth factor 1 receptor (P08069 31-736 limits assumed): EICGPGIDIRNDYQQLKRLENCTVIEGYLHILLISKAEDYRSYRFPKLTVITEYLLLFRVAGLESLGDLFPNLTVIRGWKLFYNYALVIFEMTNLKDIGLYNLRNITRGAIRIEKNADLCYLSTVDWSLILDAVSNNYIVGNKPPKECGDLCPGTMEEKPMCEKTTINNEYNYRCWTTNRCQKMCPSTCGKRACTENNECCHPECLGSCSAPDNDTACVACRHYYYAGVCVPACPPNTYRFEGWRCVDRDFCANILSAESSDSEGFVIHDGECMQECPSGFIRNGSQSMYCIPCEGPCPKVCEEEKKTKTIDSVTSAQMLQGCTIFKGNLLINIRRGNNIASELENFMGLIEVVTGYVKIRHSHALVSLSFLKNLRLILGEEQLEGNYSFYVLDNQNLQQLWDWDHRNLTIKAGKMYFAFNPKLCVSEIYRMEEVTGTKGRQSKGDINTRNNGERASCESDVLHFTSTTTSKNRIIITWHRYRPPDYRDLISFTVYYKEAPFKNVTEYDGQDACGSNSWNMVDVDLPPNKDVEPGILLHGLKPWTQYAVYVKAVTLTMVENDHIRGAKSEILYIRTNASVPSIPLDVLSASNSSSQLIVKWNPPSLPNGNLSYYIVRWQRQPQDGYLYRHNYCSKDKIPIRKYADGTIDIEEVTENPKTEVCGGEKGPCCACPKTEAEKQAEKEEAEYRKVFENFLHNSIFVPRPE
Chain of Insulin-like growth factor 1 receptor (P08069 741-1367 limits assumed): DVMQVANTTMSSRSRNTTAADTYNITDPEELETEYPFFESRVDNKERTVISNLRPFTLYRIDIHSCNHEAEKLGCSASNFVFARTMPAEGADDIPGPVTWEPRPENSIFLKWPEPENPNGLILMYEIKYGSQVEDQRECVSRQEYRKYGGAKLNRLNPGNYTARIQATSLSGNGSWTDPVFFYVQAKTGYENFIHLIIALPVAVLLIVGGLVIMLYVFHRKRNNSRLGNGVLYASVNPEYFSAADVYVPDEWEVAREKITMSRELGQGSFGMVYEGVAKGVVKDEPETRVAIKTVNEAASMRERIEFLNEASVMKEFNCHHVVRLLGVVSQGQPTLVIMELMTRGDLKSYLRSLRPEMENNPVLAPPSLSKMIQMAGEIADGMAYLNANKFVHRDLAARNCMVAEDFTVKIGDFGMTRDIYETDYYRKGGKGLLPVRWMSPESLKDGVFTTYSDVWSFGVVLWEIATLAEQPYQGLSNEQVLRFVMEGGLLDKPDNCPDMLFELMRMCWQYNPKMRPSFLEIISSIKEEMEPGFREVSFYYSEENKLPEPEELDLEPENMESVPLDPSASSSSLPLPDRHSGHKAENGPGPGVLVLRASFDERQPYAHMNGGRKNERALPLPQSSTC
For the molecule `COc1ccc(NC(=O)Nc2cc(C(F)(F)F)nc3ccccc23)cc1`, the IC50 (in general, the concentration that inhibits the measured activity by half) was greater than 30 µM. As for `O=C(Nc1ccc(Cl)cc1)Nc1cc(C(F)(F)F)nc2ccccc12`, the figure is 28.1 µM. As for `O=C(Nc1ccc(OC(F)(F)F)cc1)Nc1cc(C(F)(F)F)nc2ccccc12`, the figure is 6.7 µM. Consider `O=C(Nc1ccc([N+](=O)[O-])cc1)Nc1cc(C(F)(F)F)nc2ccccc12`, for which the IC50 worked out at 27.1 µM. As for `O=C(Nc1ccc(-c2ncccn2)cc1)Nc1cc(C(F)(F)F)nc2ccccc12`, the figure is 19.3 µM; as for `O=C(Nc1cccc(-c2ncccn2)c1)Nc1cc(C(F)(F)F)nc2ccccc12`, greater than 30 µM. For the molecule `Cc1cncc(Oc2ccc(NC(=O)Nc3cc(C(F)(F)F)nc4ccccc34)cc2)n1`, the IC50 was found to be 5.2 µM. Regarding `COc1ccc(Cl)cc1NC(=O)Nc1cc(Cl)nc2ccccc12`, the IC50 is 14.9 µM. Take `COc1ccc(NC(=O)Nc2cc(Cl)nc3ccccc23)cc1Cl`: the IC50 is greater than 30 µM. With `COc1ccc(NC(=O)Nc2cc(Cl)nc3ccccc23)cc1` the figure was greater than 30 µM; with `O=C(Nc1ccc(Cl)cc1)Nc1cc(Cl)nc2ccccc12`, 21.1 µM. With `O=C(Nc1ccc(OC(F)(F)F)cc1)Nc1cc(Cl)nc2ccccc12` the figure was 21.4 µM; with `O=C(Nc1ccc(-c2ncccn2)cc1)Nc1cc(Cl)nc2ccccc12`, greater than 30 µM; with `O=C(Nc1cccc(-c2ncccn2)c1)Nc1cc(Cl)nc2ccccc12`, greater than 30 µM.

Consider `Cc1cncc(Oc2ccc(NC(=O)Nc3cc(Cl)nc4ccccc34)cc2)n1`, for which the IC50 is greater than 30 µM. As for `COc1ccc(Cl)cc1NC(=O)Nc1cc(=O)[nH]c2ccccc12`, the IC50 is 6.5 µM.

Regarding `COc1ccc(Cl)cc1NC(=O)Nc1cc(C)nc2ncccc12`, the IC50 amounted to 24.7 µM.

As to `Cc1cncc(Oc2ccc(NC(=O)Nc3cc(C)nc4ncccc34)cc2)n1`, the half-inhibitory concentration (IC50) was found to be 12.5 µM. With `COc1ccc(Cl)cc1NC(=O)Nc1cc(C)nc2c1CCCN2` the figure was 20.5 µM; with `COc1ccc(Cl)cc1NC(=O)Nc1cc(C)nc2cnccc12`, greater than 30 µM; with `COc1cc(OC)c(NC(=O)Nc2cc(C)nc3cnccc23)cc1Cl`, greater than 30 µM.

In the case of `Cc1cc(NC(=O)Nc2ccc(Cl)cc2)c2ccccc2n1`, the IC50 is greater than 30 µM. With `Cc1cc(NC(=O)Nc2ccc(-c3ncccn3)cc2)c2ccccc2n1` the figure was greater than 30 µM. With `Cc1cc(NC(=O)Nc2cccc(-c3ncccn3)c2)c2ccccc2n1` the figure was greater than 30 µM; with `Cc1cncc(Oc2ccc(NC(=O)Nc3cc(C)nc4ccccc34)cc2)n1`, 5.6 µM; with `COc1ccc(Cl)cc1NC(=O)Nc1cc(C)nc2ccccc12`, 18.7 µM.

`COc1ccc(NC(=O)Nc2cc(C)nc3ccccc23)cc1Cl`: the IC50 is greater than 30 µM.
